{"source": "ChEMBL document CHEMBL5338723", "about": "“Emerging Target-Directed Approaches for the Treatment and Diagnosis of Microbial Infections” (J Med Chem, 2023)", "type_in_all_cases": "functional", "key": {"Pseudomonas aeruginosa [1]": {"system": "Pseudomonas aeruginosa", "assay": "Antibacterial activity against Pseudomonas aeruginosa KW799/61 assessed as microbial growth inhibition incubated for 20 hrs in iron depleted media by CLSI protocol based broth microdilution method"}, "Pseudomonas aeruginosa [2]": {"system": "Pseudomonas aeruginosa", "assay": "Antibacterial activity against Pseudomonas aeruginosa PAO1 assessed as microbial growth inhibition incubated for 20 hrs in iron depleted media by CLSI protocol based broth microdilution method"}, "Pseudomonas aeruginosa [3]": {"system": "Pseudomonas aeruginosa", "assay": "Antibacterial activity against Wild type Pseudomonas aeruginosa KW799 assessed as microbial growth inhibition incubated for 20 hrs in iron depleted media by CLSI protocol based broth microdilution method"}, "Pseudomonas aeruginosa [4]": {"system": "Pseudomonas aeruginosa", "assay": "Antibacterial activity against Pseudomonas aeruginosa Pa4 assessed as microbial growth inhibition incubated for 20 hrs in iron depleted media by CLSI protocol based broth microdilution method"}, "Acinetobacter baumannii [5]": {"system": "Acinetobacter baumannii", "assay": "Antimicrobial activity against Acinetobacter baumannii ATCC 17978 pNT165 producing carbapenamase assessed as microbial growth inhibition"}, "Acinetobacter baumannii [6]": {"system": "Acinetobacter baumannii", "assay": "Antimicrobial activity against Acinetobacter baumannii ATCC 17978 assessed as microbial growth inhibition"}, "Acinetobacter baumannii [7]": {"system": "Acinetobacter baumannii", "assay": "Antimicrobial activity against Acinetobacter baumannii ATCC BAA 1793 assessed as microbial growth inhibition"}, "Acinetobacter baumannii [8]": {"system": "Acinetobacter baumannii", "assay": "Antimicrobial activity against Acinetobacter baumannii ATCC BAA 1797 assessed as microbial growth inhibition"}, "Acinetobacter baumannii [9]": {"system": "Acinetobacter baumannii", "assay": "Antimicrobial activity against Acinetobacter baumannii ARC 3486 assessed as microbial growth inhibition"}, "Acinetobacter baumannii [10]": {"system": "Acinetobacter baumannii", "assay": "Antimicrobial activity against Acinetobacter baumannii ATCC BAA 1710 assessed as microbial growth inhibition"}, "Acinetobacter baumannii [11]": {"system": "Acinetobacter baumannii", "assay": "Antimicrobial activity against Acinetobacter baumannii ARC 5079 assessed as microbial growth inhibition"}, "Acinetobacter baumannii [12]": {"system": "Acinetobacter baumannii", "assay": "Antimicrobial activity against Acinetobacter baumannii ARC 3484 assessed as microbial growth inhibition"}, "Acinetobacter baumannii [13]": {"system": "Acinetobacter baumannii", "assay": "Antimicrobial activity against Acinetobacter baumannii ATCC 17961 assessed as microbial growth inhibition"}, "Acinetobacter baumannii [14]": {"system": "Acinetobacter baumannii", "assay": "Antimicrobial activity against Acinetobacter baumannii ATCC 17978 pNT221 assessed as microbial growth inhibition"}, "Acinetobacter baumannii [15]": {"system": "Acinetobacter baumannii", "assay": "Antimicrobial activity against Acinetobacter baumannii ATCC 17978 pNT320 producing cephalosporinase assessed as microbial growth inhibition"}, "Acinetobacter baumannii [16]": {"system": "Acinetobacter baumannii", "assay": "Antimicrobial activity against Acinetobacter baumannii ATCC 17978 pNT255 assessed as microbial growth inhibition"}, "Acinetobacter baumannii [17]": {"system": "Acinetobacter baumannii", "assay": "Antimicrobial activity against Acinetobacter baumannii ARC 5081 assessed as microbial growth inhibition"}, "Acinetobacter baumannii [18]": {"system": "Acinetobacter baumannii", "assay": "Antimicrobial activity against Acinetobacter baumannii ATCC BAA 1800 assessed as microbial growth inhibition"}, "Acinetobacter baumannii [19]": {"system": "Acinetobacter baumannii", "assay": "Antimicrobial activity against Acinetobacter baumannii ATCC 17978 assessed as microbial growth inhibition under iron-deficient condition"}, "Salmonella typhimurium": {"system": "Salmonella typhimurium", "assay": "Antimicrobial activity against Salmonella enterica subsp. enterica serovar Typhimurium assessed as increase in microbial growth inhibition"}, "Salmonella enteritidis": {"system": "Salmonella enteritidis", "assay": "Antimicrobial activity against Salmonella enterica subsp. enterica serovar Enteritidis assessed as increase in microbial growth inhibition"}, "Staphylococcus aureus [20]": {"system": "Staphylococcus aureus", "assay": "Antimicrobial activity against methicillin-resistant Staphylococcus aureus ATCC 33591 assessed as microbial growth inhibition"}, "Staphylococcus aureus [21]": {"system": "Staphylococcus aureus", "assay": "Antimicrobial activity against vancomycin intermediate Staphylococcus aureus assessed as microbial growth inhibition"}, "Enterococcus faecalis": {"system": "Enterococcus faecalis", "assay": "Antimicrobial activity against vancomycin-resistant Enterococcus faecalis ATCC 51575 assessed as microbial growth inhibition"}, "Enterococcus faecium": {"system": "Enterococcus faecium", "assay": "Antimicrobial activity against vancomycin-resistant Enterococcus faecium ATCC 51559 assessed as microbial growth inhibition"}}, "data": [{"compound": "CC(=O)Oc1cccc(C(=O)NCCCC(CCCNC(=O)c2cccc(OC(C)=O)c2OC(C)=O)(CCCNC(=O)c2cccc(OC(C)=O)c2OC(C)=O)NC(=O)CCC(=O)NC(C(=O)NC2C(=O)N3C2SC(C)(C)[C@@H]3C(=O)O)c2ccc(O)cc2)c1OC(C)=O", "note": "(some centres undefined)", "values": [{"measurement": "MIC", "setting": "Pseudomonas aeruginosa [1]", "value": 0.05, "unit": "µM"}, {"measurement": "MIC", "setting": "Pseudomonas aeruginosa [2]", "value": 0.05, "unit": "µM"}, {"measurement": "MIC", "setting": "Pseudomonas aeruginosa [3]", "value": 0.05, "unit": "µM"}, {"measurement": "MIC", "setting": "Pseudomonas aeruginosa [4]", "value": 0.05, "unit": "µM"}]}, {"compound": "CCCCCCCCCC(=O)N[C@@H](Cc1c[nH]c2ccccc12)C(=O)N[C@H](CC(N)=O)C(=O)N[C@@H](CC(=O)O)C(=O)N[C@@H]1C(=O)NCC(=O)N[C@@H](CCCNC(=O)CN(CCCCNC(=O)c2cccc(O)c2O)C(=O)c2cccc(O)c2O)C(=O)N[C@@H](CC(=O)O)C(=O)N[C@H](C)C(=O)N[C@@H](CC(=O)O)C(=O)NCC(=O)N[C@H](CO)C(=O)N[C@@H](C(C)CC(=O)O)C(=O)N[C@@H](CC(=O)c2ccccc2N)C(=O)O[C@@H]1C", "note": "(some centres undefined)", "values": [{"measurement": "MIC", "setting": "Acinetobacter baumannii [5]", "value": 0.2, "unit": "µM"}, {"measurement": "MIC", "setting": "Acinetobacter baumannii [6]", "value": 0.2, "unit": "µM"}, {"measurement": "MIC", "setting": "Acinetobacter baumannii [7]", "value": 0.2, "unit": "µM"}, {"measurement": "MIC", "setting": "Acinetobacter baumannii [8]", "value": 0.2, "unit": "µM"}, {"measurement": "MIC", "setting": "Acinetobacter baumannii [9]", "value": 0.2, "unit": "µM"}, {"measurement": "MIC", "setting": "Acinetobacter baumannii [10]", "value": 0.2, "unit": "µM"}, {"measurement": "MIC", "setting": "Acinetobacter baumannii [11]", "value": 0.2, "unit": "µM"}, {"measurement": "MIC", "setting": "Acinetobacter baumannii [12]", "value": 0.2, "unit": "µM"}, {"measurement": "MIC", "setting": "Acinetobacter baumannii [13]", "value": 0.2, "unit": "µM"}, {"measurement": "MIC", "setting": "Acinetobacter baumannii [14]", "value": 0.2, "unit": "µM"}, {"measurement": "MIC", "setting": "Acinetobacter baumannii [15]", "value": 0.2, "unit": "µM"}, {"measurement": "MIC", "setting": "Acinetobacter baumannii [16]", "value": 0.2, "unit": "µM"}, {"measurement": "MIC", "setting": "Acinetobacter baumannii [17]", "value": 0.2, "unit": "µM"}, {"measurement": "MIC", "setting": "Acinetobacter baumannii [18]", "value": 0.2, "unit": "µM"}]}, {"compound": "CCCCCCCCCC(=O)N[C@@H](Cc1c[nH]c2ccccc12)C(=O)N[C@H](CC(N)=O)C(=O)N[C@@H](CC(=O)O)C(=O)N[C@@H]1C(=O)NCC(=O)N[C@@H](CCCNC(=O)CCCC(=O)N(O)CCCCCNC(=O)CCCN(CCCCNC(=O)c2cccc(O)c2O)CCCNC(=O)c2cccc(O)c2O)C(=O)N[C@@H](CC(=O)O)C(=O)N[C@H](C)C(=O)N[C@@H](CC(=O)O)C(=O)NCC(=O)N[C@H](CO)C(=O)N[C@@H](C(C)CC(=O)O)C(=O)N[C@@H](CC(=O)c2ccccc2N)C(=O)O[C@@H]1C", "note": "(some centres undefined)", "values": [{"measurement": "MIC", "setting": "Acinetobacter baumannii [5]", "value": 0.2, "unit": "µM"}, {"measurement": "MIC", "setting": "Acinetobacter baumannii [6]", "value": 0.2, "unit": "µM"}, {"measurement": "MIC", "setting": "Acinetobacter baumannii [7]", "value": 0.2, "unit": "µM"}, {"measurement": "MIC", "setting": "Acinetobacter baumannii [8]", "value": 0.2, "unit": "µM"}, {"measurement": "MIC", "setting": "Acinetobacter baumannii [9]", "value": 0.2, "unit": "µM"}, {"measurement": "MIC", "setting": "Acinetobacter baumannii [10]", "value": 0.2, "unit": "µM"}, {"measurement": "MIC", "setting": "Acinetobacter baumannii [11]", "value": 0.2, "unit": "µM"}, {"measurement": "MIC", "setting": "Acinetobacter baumannii [12]", "value": 0.2, "unit": "µM"}, {"measurement": "MIC", "setting": "Acinetobacter baumannii [13]", "value": 0.2, "unit": "µM"}, {"measurement": "MIC", "setting": "Acinetobacter baumannii [14]", "value": 0.2, "unit": "µM"}, {"measurement": "MIC", "setting": "Acinetobacter baumannii [15]", "value": 0.2, "unit": "µM"}, {"measurement": "MIC", "setting": "Acinetobacter baumannii [16]", "value": 0.2, "unit": "µM"}, {"measurement": "MIC", "setting": "Acinetobacter baumannii [17]", "value": 0.2, "unit": "µM"}, {"measurement": "MIC", "setting": "Acinetobacter baumannii [18]", "value": 0.2, "unit": "µM"}]}, {"compound": "CC(=O)N(O)CCCCNC(=O)[C@H](COC(=O)c1cccc(O)c1O)NC(=O)[C@H]1N=C(c2cc(CCCCC(=O)N[C@@H](C(=O)N[C@@H]3C(=O)N4C(C(=O)O)=C(Cl)CS[C@H]34)c3ccccc3)cc(O)c2O)O[C@@H]1C", "values": [{"measurement": "MIC", "setting": "Acinetobacter baumannii [19]", "value": 0.5, "unit": "µg/mL"}]}, {"compound": "CC1=C(C(=O)O)N2C(=O)[C@@H](NC(=O)[C@H](NC(=O)CCCc3cn(CCOCCOCCOCCNC(=O)c4cc(O)c(O)c(C(=O)N[C@H]5COC(=O)[C@@H](NC(=O)c6cc([C@@H]7O[C@H](CO)[C@@H](O)[C@H](O)[C@H]7O)cc(O)c6O)COC(=O)[C@@H](NC(=O)c6cc([C@@H]7O[C@H](CO)[C@@H](O)[C@H](O)[C@H]7O)cc(O)c6O)COC5=O)c4)nn3)c3ccccc3)[C@H]2SC1", "values": [{"measurement": "MIC", "setting": "Salmonella typhimurium", "value": 0.01, "unit": "µM"}, {"measurement": "MIC", "setting": "Salmonella enteritidis", "value": 0.01, "unit": "µM"}]}, {"compound": "C[C@H]1OC(c2cccc(O)c2O)=N[C@@H]1C(=O)N[C@@H](COC(=O)c1cc(N[C@@H](C(=O)N[C@@H]2C(=O)N3C(C(=O)O)=C(Cl)CS[C@H]23)c2ccccc2)cc(O)c1O)C(=O)NCCCCN(O)C=O", "values": [{"measurement": "MIC", "setting": "Acinetobacter baumannii [19]", "value": 0.5, "unit": "µg/mL"}]}, {"compound": "CN[C@H](CC(C)C)C(=O)N[C@H]1C(=O)N[C@@H](CC(N)=O)C(=O)N[C@H]2C(=O)N[C@H]3C(=O)N[C@H](C(=O)N[C@H](C(=O)NCCCNC(=O)[C@H](O)[C@@H](O)[C@H](O[C@H]4O[C@@H](CO)[C@@H](O)[C@@H](O)[C@@H]4O)[C@H](O)CO)c4cc(O)cc(O)c4-c4cc3ccc4O)[C@H](O)c3ccc(c(Cl)c3)Oc3cc2cc(c3O[C@@H]2O[C@H](CO)[C@@H](O)[C@H](O)[C@H]2O[C@H]2C[C@](C)(N)[C@H](O)[C@H](C)O2)Oc2ccc(cc2Cl)[C@H]1O", "values": [{"measurement": "MIC", "setting": "Staphylococcus aureus [20]", "value": 0.4, "unit": "µM"}, {"measurement": "MIC", "setting": "Staphylococcus aureus [21]", "value": 0.3, "unit": "µM"}, {"measurement": "MIC", "setting": "Enterococcus faecalis", "value": 30, "unit": "µM"}, {"measurement": "MIC", "setting": "Enterococcus faecium", "value": 36, "unit": "µM"}]}, {"compound": "CN[C@H](CC(C)C)C(=O)N[C@H]1C(=O)N[C@@H](CC(N)=O)C(=O)N[C@H]2C(=O)N[C@H]3C(=O)N[C@H](C(=O)N[C@H](C(=O)NCCCNC(=O)[C@H](O)[C@@H](O)[C@H](O)[C@H](O)CO)c4cc(O)cc(O)c4-c4cc3ccc4O)[C@H](O)c3ccc(c(Cl)c3)Oc3cc2cc(c3O[C@@H]2O[C@H](CO)[C@@H](O)[C@H](O)[C@H]2O[C@H]2C[C@](C)(N)[C@H](O)[C@H](C)O2)Oc2ccc(cc2Cl)[C@H]1O", "values": [{"measurement": "MIC", "setting": "Staphylococcus aureus [20]", "value": 0.6, "unit": "µM"}, {"measurement": "MIC", "setting": "Staphylococcus aureus [21]", "value": 0.9, "unit": "µM"}, {"measurement": "MIC", "setting": "Enterococcus faecalis", "value": 60, "unit": "µM"}, {"measurement": "MIC", "setting": "Enterococcus faecium", "value": 54, "unit": "µM"}]}]}
